According to patent US11998017B2, “Bio-pesticide for Japanese beetles” (priority 2022, dated 2024):

Tested on: Japanese beetle
Experiment: neurological response / paralysis of Japanese beetle after consuming or absorbing quisqualic acid
Type: in vivo, Popillia Japonica
Description: The pesticide composition according to one or more embodiments described herein makes use of a phenomenon that is unique to the Japanese beetle. A primary active ingredient of the pesticide is the amino acid quisqualic acid, which elicits a unique neurological response specifically from the Japanese beetle. Quisqualic acid is naturally occurring in the Pelargonium and Quisqualic indica species of plants. As part of this disclosure, it was discovered that ingestion of the plants' essential oil is not required, but that the absorption of the plants' essential oil through contact by the Japanese beetle, can provoke a sufficient neurological response from the beetle, followed by 24-hour paralysis of the Japanese beetle. That is, the Japanese beetle need not consume the composition according to one or more embodiments herein. The composition is an effective pesticide through contact only by the Japanese beetle.
Japanese beetles that do land on the leaves, become saturated with the oil and absorb the paralysis-inducing quisqualic acid. Japanese beetles that do feed on the foliage may then also consume the quisqualic acid. […]

N[C@@H](Cn1oc(=O)[nH]c1=O)C(=O)O [quisqualic acid]
duration of paralytic state (after consumption or absorption through contact): 24 h
time until beetles fall into paralytic state (beetles that consume or absorb the quisqualic acid): 4 to 6 h
